Experimental data published in patent publication US12532884B2, “Fungicidal compositions” (SYNGENTA CROP PROTECTION AG, priority 2020, dated 2026).
Read-outs that look alike come from different tables or passages of the source.

Assays:
Phakopsora pachyrhizi = experiment: Example D: preventative activity against Phakopsora pachyrhizi on soybean (whole plants sprayed, leaf disks inoculated); type: in vivo
Excerpt: (§1) Certain mixture compositions comprising a compound of formula (I) described above may show a synergistic effect. This occurs whenever the action of an active ingredient combination is greater than the sum of the actions of the individual components. The action to be expected E for a given active ingredient combination obeys the so-called COLBY formula and can be calculated as follows (COLBY, S. R. “Calculating synergistic and antagonistic responses of herbicide combination”. Weeds, Vol. 15, pages 20-22; 1967): • ppm=milligrams of active ingredient (=a.i.) per liter of spray mixture • X=% action by active ingredient A) using p ppm of active ingredient • Y=% action by active ingredient B) using q ppm of active ingredient.
(§2) According to COLBY, the expected (additive) action of active ingredients A)+B) using p+q ppm of active ingredient is:
(§3) If the action actually observed (O) is greater than the expected action (E), then the action of the combination is super-additive, i.e. there is a synergistic effect. In mathematical terms, synergism corresponds to a positive value for the difference of (O-E). In the case of purely complementary addition of activities (expected activity), said difference (O-E) is zero. A negative value of said difference (O-E) signals a loss of activity compared to the expected activity.
Whole soybean plants are treated with the recited active ingredients 4 weeks after planting. 1 day after spraying leaf disks are cut from the first trifoliate leaf. Five repetitions at each rate are conducted. The leaf disks are inoculated with Phakopsora pachyrhizi (Asian soybean rust) one day after treatment. Evaluation of the leaf disks is conducted 11 to 14 days after inoculation and the activity is derived from the relation of the treated vs untreated, infested check. (100=no disease, no damage to the leaf, 0=high infestation, leaf damaged heavily). The rates of the active ingredients used are given in the tables as g active ingredient (a.i.)/ha.

Septoria glycines = experiment: Example C3: mixtures against Septoria glycines (brown spot), liquid culture; type: cell-based; settings: for inhibition at 0.1 ppm / inhibition at 0.3 ppm: Septoria glycines, read-out: Activity (%)
Excerpt: This occurs whenever the action of an active ingredient combination is greater than the sum of the actions of the individual components. The action to be expected E for a given active ingredient combination obeys the so-called COLBY formula and can be calculated as follows (COLBY, S. R. “Calculating synergistic and antagonistic responses of herbicide combination”. Weeds, Vol. 15, pages 20-22; 1967): • ppm=milligrams of active ingredient (=a.i.) per liter of spray mixture • X=% action by active ingredient A) using p ppm of active ingredient • Y=% action by active ingredient B) using q ppm of active ingredient.
as §2, §3
Mycelia fragments or conidia suspensions of a fungus prepared either freshly from liquid cultures of the fungus or from cryogenic storage, are directly mixed into nutrient broth. DMSO solutions of the test compound (max. 10 mg/mL) are diluted with 0.025% Tween20 by a factor of 50 and 10 μl of this solution is pipetted into a microtiter plate (96-well format). […] The test plates are incubated in the dark at 24° C. and 96% relative humidity. The inhibition of fungal growth is determined photometrically after 2 to 7 days, depending on the pathosystem, and percent antifungal activity relative to the untreated check is calculated.
Conidia of the fungus harvested from a fresh culture grown on artificial media, were directly mixed into nutrient broth (PDB potato dextrose broth). A DMSO solution of the test compounds was placed into a microtiter plate (96-well format) and the nutrient broth containing the fungal spores was added to it.
Fungicidal activity was evaluated on a 100-0 scale (100=no disease growth; 0=well completely covered by mycelium).

Septoria tritici = experiment: Example C2: mixtures against Septoria tritici (leaf blotch), liquid culture; type: cell-based; settings: for inhibition at 0.3 ppm: read-out: Activity (%)
Excerpt: as §1, §2, §3
Mycelia fragments or conidia suspensions of a fungus prepared either freshly from liquid cultures of the fungus or from cryogenic storage, are directly mixed into nutrient broth. DMSO solutions of the test compound (max. 10 mg/mL) are diluted with 0.025% Tween20 by a factor of 50 and 10 μl of this solution is pipetted into a microtiter plate (96-well format). The nutrient broth containing the fungal spores/mycelia fragments is then added to give an end concentration of the tested compound. The test plates are incubated in the dark at 24° C. and 96% relative humidity. The inhibition of fungal growth is determined photometrically after 2 to 7 days, depending on the pathosystem, and percent antifungal activity relative to the untreated check is calculated.
Conidia of the fungus from cryogenic storage were directly mixed into nutrient broth (PDB potato dextrose broth). A DMSO solution of the test compounds was placed into a microtiter plate (96-well format) and the nutrient broth containing the fungal spores was added to it.
The following mixture compositions at the reported concentration (in ppm) in tables C2-3 to C2-5 gave the following disease control in this test Septoria tritici (leaf blotch). Fungicidal activity was evaluated on a 100-0 scale (100=no disease growth; 0=well completely covered by mycelium).

[1] = single active ingredient, 4.5 g/ha
[2] = single component, 0.1 ppm, 100-0 scale (100=no disease growth)
[3] = single component, 0.3 ppm, 100-0 scale (100=no disease growth)
[4] = Phakopsora pachyrhizi, foliar, applied alone, 9 g/ha, read-out: Observed Activity (% of untreated)
[5] = Phakopsora pachyrhizi, foliar, applied alone, 18 g/ha, read-out: Observed Activity (% of untreated)
[6] = Phakopsora pachyrhizi, foliar, single active ingredient, 9 g/ha, read-out: Observed Activity (%)
[7] = Phakopsora pachyrhizi, foliar, single active ingredient, 18 g/ha, read-out: Observed Activity (%)
[8] = single active ingredient, 9 g/ha
[9] = single active ingredient, 18 g/ha
[10] = Phakopsora pachyrhizi, foliar, applied alone, 22.5 g/ha, read-out: Observed Activity (% of untreated)
[11] = Phakopsora pachyrhizi, foliar, applied alone, 45 g/ha, read-out: Observed Activity (% of untreated)
[12] = Phakopsora pachyrhizi, foliar, applied alone, read-out: Observed Activity (% of untreated)
[13] = Phakopsora pachyrhizi, foliar, single active ingredient, soybean, preventative, 100=no disease, read-out: Observed Activity (%)
[14] = Phakopsora pachyrhizi, foliar, applied alone, 4.5 g/ha, read-out: Observed Activity (% of untreated)
[15] = Phakopsora pachyrhizi, foliar, single active ingredient, 4.5 g/ha, read-out: Observed Activity (%)
[16] = Zymoseptoria tritici, single component, 0.3 ppm, 100-0 scale
[17] = single component, 0.3 ppm, 100-0 scale

SMILES: Cn1cc(C(=O)Nc2cccc3c2[C@@H]2CC[C@H]3C2=C(Cl)Cl)c(C(F)F)n1 (racemic) [Benzovindiflupyr]
- Observed Activity (% of untreated) (Phakopsora pachyrhizi; applied alone, 2.25 g/ha): 92%
- Observed Activity (% of untreated) (Phakopsora pachyrhizi; applied alone, 4.5 g/ha): 94%
- Observed Activity (%) (Phakopsora pachyrhizi; single active ingredient, 2.25 g/ha): 92%
- Observed Activity (%) (Phakopsora pachyrhizi; [1]): 94%

SMILES: CC(C)(C)[C@@H](O)[C@@H](Cc1ccc(Cl)cc1)n1cncn1 (racemic) [paclobutrazol]
- inhibition at 0.1 ppm (Septoria glycines; [2]): 0%
- inhibition at 0.3 ppm (Septoria glycines; [3]): 50%

SMILES: CNC(=O)C(=N/OC)/C(C)=C\COc1ccn(-c2ccc(Cl)cc2Cl)n1 [(Z,2E)-5-[1-(2,4-dichlorophenyl)pyrazol-3-yl]oxy-2-methoxyimino-N,3-dimethyl-pent-3-enamide]
- inhibition at 9 g/ha (Phakopsora pachyrhizi; [4]): 2%
- inhibition at 18 g/ha (Phakopsora pachyrhizi; [5]): 3%
- inhibition at 9 g/ha (Phakopsora pachyrhizi; [6]): 2%
- inhibition at 18 g/ha (Phakopsora pachyrhizi; [7]): 3%

SMILES: CO/C=C(/C(=O)OC)c1ccccc1Oc1cc(Oc2ccccc2C#N)ncn1 [Azoxystrobin]
- Observed Activity (% of untreated) (Phakopsora pachyrhizi; applied alone, 2.25 g/ha): 0%
- Observed Activity (% of untreated) (Phakopsora pachyrhizi; applied alone, 4.5 g/ha): 15%
- Observed Activity (% of untreated) (Phakopsora pachyrhizi; applied alone, 9 g/ha): 23%
- Observed Activity (% of untreated) (Phakopsora pachyrhizi; applied alone, 18 g/ha): 9%
- Observed Activity (%) (Phakopsora pachyrhizi; [1]): 0%
- Observed Activity (%) (Phakopsora pachyrhizi; [8]): 2%
- Observed Activity (%) (Phakopsora pachyrhizi; [9]): 26%

SMILES: CC(C1CC1)C(O)(Cn1cncn1)c1ccc(Cl)cc1 (centres unmarked) [Cyproconazole]
- inhibition at 22.5 g/ha (Phakopsora pachyrhizi; [10]): 51%
- inhibition at 45 g/ha (Phakopsora pachyrhizi; [11]): 52%

SMILES: CC1COC(Cn2cncn2)(c2ccc(Oc3ccc(Cl)cc3)cc2Cl)O1 (centres unmarked) [Difenoconazole]
- inhibition at 22.5 g/ha (Phakopsora pachyrhizi; [10]): 0%
- inhibition at 45 g/ha (Phakopsora pachyrhizi; [11]): 0%

SMILES: CC(Cc1ccc(C(C)(C)C)cc1)CN1CCCCC1 (centres unmarked) [Fenpropidin, reference compound]
- inhibition at 0.1 ppm (Septoria glycines; [2]): 0%
- inhibition at 0.3 ppm (Septoria glycines; [3]): 50%
- inhibition at 225 g/ha (Phakopsora pachyrhizi; [12]): 64%
- inhibition at 450 g/ha (Phakopsora pachyrhizi; [12]): 61%
- inhibition at 900 g/ha (Phakopsora pachyrhizi; [12]): 82%
- inhibition at 225 g/ha (Phakopsora pachyrhizi; [13]): 64%
- inhibition at 450 g/ha (Phakopsora pachyrhizi; [13]): 61%
- inhibition at 900 g/ha (Phakopsora pachyrhizi; [13]): 82%

SMILES: CC(Cc1ccc(C(C)(C)C)cc1)CN1C[C@@H](C)O[C@@H](C)C1 (some centres unmarked) [Fenpropimorph, reference compound]
- inhibition at 0.1 ppm (Septoria glycines; [2]): 50%
- inhibition at 0.3 ppm (Septoria glycines; [3]): 70%
- inhibition at 225 g/ha (Phakopsora pachyrhizi; [12]): 8%
- inhibition at 450 g/ha (Phakopsora pachyrhizi; [12]): 43%
- inhibition at 900 g/ha (Phakopsora pachyrhizi; [12]): 76%
- inhibition at 225 g/ha (Phakopsora pachyrhizi; [13]): 8%
- inhibition at 450 g/ha (Phakopsora pachyrhizi; [13]): 43%
- inhibition at 900 g/ha (Phakopsora pachyrhizi; [13]): 76%

SMILES: Cc1cccc(-n2nnn(C)c2=O)c1COc1ccn(-c2ccc(Cl)cc2)n1 [Metyltetraprole]
- Observed Activity (% of untreated) (Phakopsora pachyrhizi; applied alone, 9 g/ha): 2%
- Observed Activity (% of untreated) (Phakopsora pachyrhizi; applied alone, 18 g/ha): 2%
- Observed Activity (%) (Phakopsora pachyrhizi; [8]): 2%
- Observed Activity (%) (Phakopsora pachyrhizi; [9]): 2%

SMILES: OC(Cc1ccccc1Cl)(Cn1nc[nH]c1=S)C1(Cl)CC1 (centres unmarked) [Prothioconazole]
- inhibition at 22.5 g/ha (Phakopsora pachyrhizi; [10]): 74%
- inhibition at 45 g/ha (Phakopsora pachyrhizi; [11]): 76%

SMILES: CON(C(=O)c1cn(C)nc1C(F)F)C(C)Cc1c(Cl)cc(Cl)cc1Cl (centres unmarked) [Pydiflumetofen]
- Observed Activity (% of untreated) (Phakopsora pachyrhizi; applied alone, 22.5 g/ha): 0%
- Observed Activity (% of untreated) (Phakopsora pachyrhizi; applied alone, 45 g/ha): 4%

SMILES: COC(=O)N(OC)c1ccccc1COc1ccn(-c2ccc(Cl)cc2)n1 [Pyraclostrobin]
- inhibition at 4.5 g/ha (Phakopsora pachyrhizi; [14]): 1%
- inhibition at 9 g/ha (Phakopsora pachyrhizi; [4]): 1%
- inhibition at 18 g/ha (Phakopsora pachyrhizi; [5]): 0%
- inhibition at 4.5 g/ha (Phakopsora pachyrhizi; [15]): 1%
- inhibition at 9 g/ha (Phakopsora pachyrhizi; [6]): 1%
- inhibition at 18 g/ha (Phakopsora pachyrhizi; [7]): 0%

SMILES: CON=C(C(=O)OC)c1ccccc1CON=C(C)c1cccc(C(F)(F)F)c1 [Trifloxystrobin]
- inhibition at 2.25 g/ha (Phakopsora pachyrhizi; Phakopsora pachyrhizi, foliar, applied alone, 2.25 g/ha, read-out: Observed Activity (% of untreated)): 0%
- inhibition at 4.5 g/ha (Phakopsora pachyrhizi; [14]): 3%
- inhibition at 9 g/ha (Phakopsora pachyrhizi; [4]): 0%
- inhibition at 18 g/ha (Phakopsora pachyrhizi; [5]): 19%
- inhibition at 4.5 g/ha (Phakopsora pachyrhizi; [15]): 0%
- inhibition at 9 g/ha (Phakopsora pachyrhizi; [6]): 1%
- inhibition at 18 g/ha (Phakopsora pachyrhizi; [7]): 33%

SMILES: CC(C1CC1)C(O)(Cn1cncn1)c1ccc(Cl)cc1 (centres unmarked) [cyproconazole]
- inhibition at 0.1 ppm (Septoria glycines; [2]): 20%
- inhibition at 0.3 ppm (Septoria tritici; [16]): 50%

SMILES: N#Cc1c[nH]cc1-c1cccc2c1OC(F)(F)O2 [fludioxonil]
- inhibition at 0.1 ppm (Septoria glycines): 0%
- inhibition at 0.3 ppm (Septoria glycines): 20%
- inhibition at 0.3 ppm (Septoria tritici; Zymoseptoria tritici): 20%

SMILES: O=C(NCCc1ncc(C(F)(F)F)cc1Cl)c1ccccc1C(F)(F)F [fluopyram]
- inhibition at 0.1 ppm (Septoria glycines; [2]): 0%
- inhibition at 0.3 ppm (Septoria glycines; [3]): 50%

SMILES: OC(Cn1cncn1)(c1ccc(F)cc1)c1ccccc1F (centres unmarked) [flutriafol]
- inhibition at 0.1 ppm (Septoria glycines; [2]): 20%
- inhibition at 0.3 ppm (Septoria glycines; [3]): 70%

SMILES: Cn1cc(C(=O)Nc2ccccc2-c2cc(F)c(F)c(F)c2)c(C(F)F)n1 [fluxapyroxad]
- Activity (%) (Septoria glycines; single component, 0.1 ppm): 50%
- Activity (%) (Septoria glycines; [2]): 50%
- Activity (%) (Septoria glycines; single component, 0.3 ppm): 70%
- Activity (%) (Septoria glycines; [3]): 70%

SMILES: CCCCC(O)(Cn1cncn1)c1ccc(Cl)cc1Cl (centres unmarked) [hexaconazole]
- inhibition at 0.1 ppm (Septoria tritici; Zymoseptoria tritici, single component, 0.1 ppm, 100-0 scale (100=no disease growth)): 70%

SMILES: CC(C)C1C2CCC1c1c(NC(=O)c3cn(C)nc3C(F)F)cccc12 (centres unmarked) [isopyrazam]
- Activity (%) (Septoria glycines; single component, 0.1 ppm): 70%
- Activity (%) (Septoria glycines; [2]): 70%
- Activity (%) (Septoria glycines; single component, 0.3 ppm): 70%
- Activity (%) (Septoria glycines; [3]): 70%
- Activity (%) (Septoria tritici; [2]): 50%
- Activity (%) (Septoria tritici; [17]): 70%

SMILES: CCCC1COC(Cn2cncn2)(c2ccc(Cl)cc2Cl)O1 (centres unmarked) [propiconazole]
- inhibition at 0.3 ppm (Septoria tritici; [16]): 70%

SMILES: CC1(C)N=C(c2cnc3ccccc3c2)c2ccccc2C1(F)F [quinofumelin]
- Activity (%) (Septoria tritici; [17]): 0%

SMILES: S1SSSSSSS1 [sulphur]
- inhibition at 0.3 ppm (Septoria glycines; [3]): 0%

SMILES: CC(C)(C)C(O)(CCc1ccc(Cl)cc1)Cn1cncn1 (centres unmarked) [tebuconazole]
- inhibition at 0.1 ppm (Septoria glycines; [2]): 70%

SMILES: CCOC(=O)C1CC(=O)C(=C(O)C2CC2)C(=O)C1 (centres unmarked) [trinexapac-ethyl]
- inhibition at 0.3 ppm (Septoria glycines; [3]): 0%
